“Also recorded” adds a separate entry of the source.
How the values were obtained:
M. luteus = assay: Kill or inhibit growth/proliferation; morphology, biofilm and growth disruption (Tables 5, 6); format: cell-based, Micrococcus luteus; design: key: A: Peptide aggregates; B: Less hyphal formation; Clumps; Diffuse clumps and small polyps; F: Diffuse growth; H: Thin; I: Growth inhibition; Microcolony formation; Rippled; Small polyps; Thick; W: Halo formation on top, microlonies on bottom; also: test concentration or dose not given here
[1] = system: microorganisms (e.g., bacteria, yeasts, fungi); assay: Targeting peptide binding to target microorganisms (Table 3); details: microorganism(s) the targeting peptide binds, preferably 1x PBS
microorganisms = assay: Peptides having multiple activities (targeting/binding, antimicrobial, growth or phenotype altering)
Description: In certain embodiments, peptides described herein can have multiple activities. Thus for example, a peptide can have both binding/targeting activity and antimicrobial activity. Such peptides can be used, e.g., in a chimeric construct, for any or all of these properties. Thus, for example, a peptide designated “B” in Table 8 can be used as a targeting peptide. If it is also designated G or M it can also be used for antimicrobial activity.

S. epidermidis = assay: Kill or inhibit growth/proliferation; morphology, biofilm and growth disruption (Tables 5, 6); format: cell-based, Staphylococcus epidermidis; design: key: A: Peptide aggregates; B: Less hyphal formation; Clumps; Diffuse clumps and small polyps; F: Diffuse growth; H: Thin; I: Growth inhibition; Microcolony formation; Rippled; Small polyps; Thick; W: Halo formation on top, microlonies on bottom; also: test concentration or dose not given here
E. faecalis = assay: as above; format: cell-based, Enterococcus faecalis; design: key: A: Peptide aggregates; B: Less hyphal formation; Clumps; Diffuse clumps and small polyps; F: Diffuse growth; H: Thin; I: Growth inhibition; Microcolony formation; Rippled; Small polyps; Thick; W: Halo formation on top, microlonies on bottom
MRSA = assay: as above; format: cell-based, Methicillin-resistant Staphylococcus aureus; design: key: A: Peptide aggregates; B: Less hyphal formation; Clumps; Diffuse clumps and small polyps; F: Diffuse growth; H: Thin; I: Growth inhibition; Microcolony formation; Rippled; Small polyps; Thick; W: Halo formation on top, microlonies on bottom; also: test concentration or dose not given here
S. pneumoniae = assay: as above; format: cell-based, Streptococcus pneumoniae; design: key: A: Peptide aggregates; B: Less hyphal formation; Clumps; Diffuse clumps and small polyps; F: Diffuse growth; H: Thin; I: Growth inhibition; Microcolony formation; Rippled; Small polyps; Thick; W: Halo formation on top, microlonies on bottom; also: test concentration or dose not given here
E. coli = assay: as above; format: cell-based, Escherichia coli; design: key: A: Peptide aggregates; B: Less hyphal formation; Clumps; Diffuse clumps and small polyps; F: Diffuse growth; H: Thin; I: Growth inhibition; Microcolony formation; Rippled; Small polyps; Thick; W: Halo formation on top, microlonies on bottom; also: test concentration or dose not given here
[2] = binding in aqueous buffers depending on peptide solubility
[3] = peptide binding conducted in aqueous buffers varied by peptide solubility
For Organism, effect in this document: test concentration or dose not given here.

Substance	Organism, effect (M. luteus)	Target(s) [1, 2]	Activities (microorganisms)	Organism, effect (S. epidermidis)	Organism, effect (E. faecalis)	Organism, effect (MRSA)	Organism, effect (S. pneumoniae)	Organism, effect (E. coli)	Target(s) [1, 3]
PF-270: peptide having multiple activities (MYLTPYAWIAVGSIFAFSVTTIKIGDQNDEKQKSHKNDVHKR; Peptide with targeting and/or antimicrobial activity)	M. luteus (H)	S. epidermidis; also recorded: M. luteus; also recorded: P. aeruginosa	G B						
PF-250 (SEDIFGRLANEKANGLEELRKIRLKQ; Peptide with targeting and/or antimicrobial activity)	M. luteus (T)								
PF-125: peptide having multiple activities (YVVGALVILAVAGLIYSMLRKA; Peptide with targeting and/or antimicrobial activity)	M. luteus (C)		G B	S. epidermidis (D)					
PF-255: peptide having multiple activities (DHKINESQHNPFRSDSNKQNVDFF; Peptide with targeting and/or antimicrobial activity)	M. luteus (M)	P. aeruginosa	G B						
PF-444: peptide having multiple activities (chain 1 MAAKLWEEGKMVYASSASMTKRLKLAMSKV; chain 2 MAAKLWEEGKMVYASSASMTKRLKLAMSKV; Peptide with targeting and/or antimicrobial activity)			G B	S. epidermidis (C)	E. faecalis (C)	MRSA (C)	S. pneumoniae (R)	E. coli (R)	M. luteus; also recorded: C. albicans; also recorded: S. pneumoniae; also recorded: C. jeikeium
PF-264 (MQSLSNRQSLIASYILMGIFLSFGYPPASLSKFFCRLSHL; Peptide with targeting and/or antimicrobial activity)	M. luteus (H)								
PF-234: peptide having multiple activities (RTPYILRS; Peptide with targeting and/or antimicrobial activity)	M. luteus (T)	S. epidermidis; also recorded: M. luteus	G B						
PF-224: peptide having multiple activities (DYFYITLSQKNTF; Peptide with targeting and/or antimicrobial activity)	M. luteus (T)	S. epidermidis; also recorded: P. aeruginosa; also recorded: A. baumannii	G B						
LMFFSENMDKRDTLSGKFRYFAGSKVIKLMNWLSENGK [PF-226]	M. luteus (T)	A. baumannii	G B	S. epidermidis (C)					
PF-276: peptide having multiple activities (LDLALSTNSLNLEGFSF; Peptide with targeting and/or antimicrobial activity)	M. luteus (M)	S. epidermidis	G B						
PF-452: peptide having multiple activities (chain 1 MNNWIKVAQISVTVINEVIDIMKEKQNGGK; chain 2 MNNWIKVAQISVTVINEVIDIMKEKQNGGK; Peptide with targeting and/or antimicrobial activity)			G B	S. epidermidis (C)	E. faecalis (C)	MRSA (C)	S. pneumoniae (R)	E. coli (C)	M. luteus; also recorded: P. aeruginosa; also recorded: C. albicans; also recorded: S. pneumoniae; also recorded: E. faecalis; also recorded: C. jeikeium; also recorded: M. smegmatis
PF-235: peptide having multiple activities (GIPFSKPHKRQVNYMKSDVLAYIEQNKMAHTA; Peptide with targeting and/or antimicrobial activity)	M. luteus (T)	S. epidermidis; also recorded: M. luteus	G B						
PF-518: peptide having multiple activities (chain 1 SFYSKYSRYIDNLAGAIFLFF; chain 2 SFYSKYSRYIDNLAGAIFLFF; Peptide with targeting and/or antimicrobial activity)			G B	S. epidermidis (C)	E. faecalis (C)	MRSA (C)	S. pneumoniae (M)	E. coli (R)	S. epidermidis and E. coli and P. aeruginosa and C. albicans and MRSA and S. pneumoniae and E. faecalis
PF-274 (SIQEAEKIIKNDPFYIHDVADYDFMWFEPSKSLEEIKEFV; Peptide with targeting and/or antimicrobial activity)	M. luteus (M)								
PF-215: peptide having multiple activities (ELKITNYNVNTVLYRYYKWGNDLCE; Peptide with targeting and/or antimicrobial activity)	M. luteus (T)	S. epidermidis; also recorded: M. luteus; also recorded: P. aeruginosa; also recorded: A. baumannii	G B						
VWENRKKYLENEIERHNVFLKLGQEVIKGLNALASRGR [PF-257]	M. luteus (R)	S. epidermidis	G B						
PF-249: peptide having multiple activities (INSRYKISF; Peptide with targeting and/or antimicrobial activity)	M. luteus (R)	S. epidermidis; also recorded: M. luteus	G B						
PF-271: peptide having multiple activities (AAQPQTTSP; Peptide with targeting and/or antimicrobial activity)	M. luteus (T)	S. epidermidis; also recorded: M. luteus; also recorded: P. aeruginosa; also recorded: A. baumannii	G B						
PF-440: peptide having multiple activities (chain 1 MFIISPDLFNIAVILYILFFIHDILLLILS; chain 2 MFIISPDLFNIAVILYILFFIHDILLLILS; Peptide with targeting and/or antimicrobial activity)			G B	S. epidermidis (C)	E. faecalis (C)	MRSA (C)	S. pneumoniae (R)	E. coli (R)	
PF-212: peptide having multiple activities (NDSKASN; Peptide with targeting and/or antimicrobial activity)	M. luteus (M)	M. luteus; also recorded: P. aeruginosa	G B						
PF-439: peptide having multiple activities (chain 1 RVLVLKKFHGIMDGNRNVAVFFVGQ; chain 2 RVLVLKKFHGIMDGNRNVAVFFVGQ; Peptide with targeting and/or antimicrobial activity)			G B	S. epidermidis (C)	E. faecalis (C)	MRSA (M)	S. pneumoniae (R)	E. coli (R)	

— US20110039762A1, “TARGETED ANTIMICROBIAL MOIETIES” (C3 JIAN, INC., priority 2009, published 2011)
